Measurements published in US8697692B2, “Pyrrolo [3,2-c] pyridine-4-one 2-indolinone protein kinase inhibitors” (Shanghai Hengrui Pharmaceutical Co., Ltd., priority 2006, dated 2014).

Test system: A431 cell
Assay: Cell Proliferation Inhibition EGFR Assay (SRB method)
Format: cell-based, homo sapient
Conditions: Homo sapiens, A-431; A431 cells, 72 hours exposure, Sulforhodamine B; read-out: IC50 (A431)
Description: The following in vitro assay may be used to determine the level of activity and effect of different compounds of the present invention on the proliferation inhibition (cell toxic) of […] growth factor receptor (EGFR) high expressing homo […] cancer cell-A431 cell. The cellular assay described here measure the compounds of their anti-angiogenesis and proliferation inhibition activity and effect through EGFR on the cancer cells in vitro. The effect and activity is represented by the IC50 value that kills the cancer cell. […] The homo […] highly express EGFR are chosen and seeded to 96-well cell culture plate at a suitable concentration (exp 5000 cells/ml medium). The cells then are cultured in carbon dioxide (CO2) incubator till when they confluence to about 85%. Then, the cell culture medium is replaced by fresh one with tested compounds added in it at serial concentrations (general 6 to 7 concentrations). Then the cells are put back to the culture and cultured for continuous 72 hours. 72 hours later, the cell exposed to compounds and control cell are assayed for their proliferation using Sulforhodamine B (SRB) method. Compounds IC50 on tested cells are calculated by the data of inhibition rates of serial concentrations of the tested compounds. • a. Dimethyl sulfoxide (Sinophma chemical reagent company, catalog No. T20050806) • b. A431 cells (Purchased from Institute of biochemistry and cell biology) • c. Falcon 100 mm cell culture plates (Baton Dickison Labware, Baton Dickison and company, • Catalog No. 18677) • d. coming 96-well culture cluster (Corning Incorporated, Catalog No. 3599) • e. Fisher Pipette (Fisher scientific, Catalog No. 03-692-164) • f. DMEM/F12 cell medium (Gibco, Catalog No. 12400-024) • g. Fetal bovine serum, origin from Australia (Gibco, Catalog No. 10099-141) • h. […] Sulforhodamine B (Sigma, Catalog No. 3520-42-1) • k. Acetic Acid (Sinophma chemical reagent company, Catalog No. T20060508) • l. Trichloroacetic Acid (Sinophma chemical reagent company, Catalog No. T20060305) • m. Tris base (Amresco, Catalog No. 0826) • n. Class II A/B3 Biological safety cabinet (ThermoForma Catalog No. HB0053 03) • o. Series II water jacketed CO2 incubator (ThermoForma Model: 3111) • p. Centrifuge (Fisher Scientific Marathon 8 k, Catalog No. 0027-02) • q. Novastar Plate reader (BMG Labtech, Catalog No. 700 0081) • r. Orbital Shaker (Qilinbeier, Catalog No. TS-1) Protocol: […] Growing seeded 96-well plates at 37° C., 5% CO2, till 85% confluence. • 4. Prepare compounds stock solution, using DMSO solve candidate compounds to a concentration of 20 mM. […] Use cell culture medium (in this case, DMEM/F12+10% FBS) to dilute the compounds solution prepared above. Each DMSO serial concentration compound solution is diluted by 20 times with culture medium by adding 5 μl DMSO compound solution to 95 μl culture medium, then mix well by vortex. This promise that the DMSO concentration at that the A431 cell will exposed to will not surpass 0.5%. • 6. […] Each well added 180 μl medium, then add 20 μl medium solution of tested compounds prepared at step 5 to each well. For control group cell, add 20 μl culture medium containing 0.5% pure DMSO. […] Each 96-well plate, we can test 3 compounds with a control cell group. • 7. Put the culture plates back to incubator, culture for 72 hours at 37° C., 5% CO2. • 8. 72 hours later, remove cultures from incubator into sterile work area. • 9. Prepare fixative (50% Trichloroacetic Acid-TCA) by adding reagent grade water to the TCA, fix the cells by gently layering […] of cold TCA solution on top of the growth medium. • 10. Incubate plates for 1 hour at 4° C. and then rinse with water several times to remove TCA, serum proteins, etc. Plates are air dried and stored until use. Bland background optical density is measured in wells incubated with growth medium without cells. • 11. Use 10% acetic acid solution to prepare 0.4% Sulforhodamine B solution. Add 50 μl sulforhodamine B solution to each well of 96-well plates. • 12. […]

| Compound | IC50 [µM] |
| --- | --- |
| CCN(CC)CCN1CCc2[nH]c(/C=C3\C(=O)Nc4c(N)cc(F)cc43)c(C)c2C1=O [Example 4] | 12.6 |
| CCN(CC)CCN1CCc2[nH]c(/C=C3\C(=O)Nc4c(NC=O)cc(F)cc43)c(C)c2C1=O [Example 5, N-{3-[5-(2-Diethylamino-ethyl)-3-methyl-4-oxo-4,5,6,7-tetrahydro-1H-pyrrolo[3,2-c]pyridine-2-ylmethylene]-5-fluoro-2-oxo-2,3-dihydro-1H-indol-7-yl}-formamide] | 1.38 |

Test system: HUVEC cell
Assay: Cell Proliferation Inhibition VEGF-R2 Assay (SRB method)
Format: cell-based, homo sapient
Conditions: Homo sapiens; HUVEC cells, 72 hours exposure, Sulforhodamine B; read-out: IC50 (VEGFR/HUVEC)
Description: The following in vitro assay may be used to determine the level of activity and effect of different compounds of the present invention on the proliferation inhibition (cell toxic) of endothelium growth factor receptor (VEGFR) high expressing homo […] cancer cell-HUVEC cell. The cellular assay described here measure the compounds of their anti-angiogenesis and proliferation inhibition activity and effect through […] on the cancer cells in vitro. The effect and activity is represented by the IC50 value that kills the cancer cell. […] The homo […] highly express […] are chosen and seeded to 96-well cell culture plate at a suitable concentration (exp 5000 cells/ml medium). The cells then are cultured in carbon dioxide (CO2) incubator till when they confluence to about 85%. Then, the cell culture medium is replaced by fresh one with tested compounds added in it at serial concentrations (general 6 to 7 concentrations). Then the cells are put back to the culture and cultured for continuous 72 hours. 72 hours later, the cell exposed to compounds and control cell are assayed for their proliferation using Sulforhodamine B (SRB) method. […] Dimethyl sulfoxide (Sinophma chemical reagent company, catalog No. T20050806) • b. HUVEC cells (Purchased from Institute of biochemistry and cell biology) • c. […] Acetic Acid (Sinophma chemical reagent company, Catalog No. T20060508) • l. Trichloroacetic Acid (Sinophma chemical reagent company, Catalog No. T20060305) • m. […] Class II A/B3 Biological safety cabinet (ThermoForma Catalog No. HB0053-03) • o. […] Centrifuge (Fisher Scientific Marathon 8 k, Catalog No. 0027-02) • q. Novastar Plate reader (BMG Labtech, Catalog No. 700-0081) • r. […] Growing seeded 96-well plates at 37° C., 5% CO2, till 85% confluence. • 4. Prepare compounds stock solution, using DMSO solve candidate compounds to a concentration of 20 mM. […] Use cell culture medium (in this case, DMEM/F12+10% FBS) to dilute the compounds solution prepared above. Each DMSO serial concentration compound solution is diluted by 20 times with culture medium by adding 5 μl DMSO compound solution to 95 μl culture medium, then mix well by vortex. […] After HUVEC cell has attached to the dish bottom and confluence about 85%, change the culture medium with fresh DMEM/F12 plus 10% FBS. Each well added 180 μl medium, then add 20 μl medium solution of tested compounds prepared at step 5 to each well. For control group cell, add 20 μl culture medium containing 0.5% pure DMSO. […] Each 96-well plate, we can test 3 compounds with a control cell group. • 7. Put the culture plates back to incubator, culture for 72 hours at 37° C., 5% CO2. • 8. 72 hours later, remove cultures from incubator into sterile work area. • 9. Prepare fixative (50% Trichloroacetic Acid-TCA) by adding reagent grade water to the TCA, fix the cells by gently layering 50 μl of cold TCA solution on top of the growth medium. • 10. Incubate plates for 1 hour at 4° C. and then rinse with water several times to remove TCA, serum proteins, etc. Plates are air dried and stored until use. Bland background optical density is measured in wells incubated with growth medium without cells. • 11. Use 10% acetic acid solution to prepare 0.4% Sulforhodamine B solution. Add 50 μl sulforhodamine B solution to each well of 96-well plates. • 12. Allow cells to stain for 30 minutes. • 13. Prepared the wash solution of […] acetic acid. At the end of the staining period, the stain is removed and the cells rinsed quickly with 1% acetic acid. Repeat until unincorporated dye is removed. Keep wash times to a minimum to reduce desorption of protein-bound dye. After being rinsed, the cultures are air dried until no moisture is visible. • 14. The incorporated dye is then solubilized in a volume of Sulforhodamine B assay Solubilization solution (10 mM Tris) equal to the original volume of culture medium. Allow cultures to stand for 5 minutes at room temperature.

| Compound | IC50 [µM] |
| --- | --- |
| CCN(CC)CCN1CCc2[nH]c(/C=C3\C(=O)Nc4c(N)cc(F)cc43)c(C)c2C1=O [Example 4] | 3.6 |
| CCN(CC)CCN1CCc2[nH]c(/C=C3\C(=O)Nc4c(NC=O)cc(F)cc43)c(C)c2C1=O [Example 5, N-{3-[5-(2-Diethylamino-ethyl)-3-methyl-4-oxo-4,5,6,7-tetrahydro-1H-pyrrolo[3,2-c]pyridine-2-ylmethylene]-5-fluoro-2-oxo-2,3-dihydro-1H-indol-7-yl}-formamide] | 10.5 |
| CCN(CC)CCN1CCc2[nH]c(/C=C3\C(=O)Nc4ccc(NS(C)(=O)=O)cc43)c(C)c2C1=O [Example 10, N-{3-[5-(2-Diethylamino-ethyl)-3-methyl-4-oxo-4,5,6,7-tetrahydro-1H-pyrrolo[3,2-c]pyridine-2-ylmethylene]-2-oxo-2,3-dihydro-1H-indol-5-yl}-methanesulfonamide] | 0.36 |
| CCN(CC)CCN1CCc2[nH]c(/C=C3\C(=O)Nc4ccc(NC(C)=O)cc43)c(C)c2C1=O [Example 11, N-{3-[5-(2-Diethylamino-ethyl)-3-methyl-4-oxo-4,5,6,7-tetrahydro-1H-pyrrolo[3,2-c]pyridine-2-ylmethylene]-2-oxo-2,3-dihydro-1H-indol-5-yl}-acetamide] | 0.17 |
| Cc1c(/C=C2\C(=O)Nc3ccc(Br)cc32)[nH]c2c1C(=O)N(CCN1CCOCC1)CC2 [Example 17, 2-(5-Bromo-2-oxo-1,2-dihydro-indol-3-ylidenemethyl)-3-methyl-5-(2-mopholin-4-yl-ethyl)-1,5,6,7-tetrahydro-pyrrolo[3,2-c]pyridin-4-one] | 2.26 |
| CC(=O)Nc1cc2c(cc1F)/C(=C/c1[nH]c3c(c1C)C(=O)N(CCN1CCOCC1)CC3)C(=O)N2 [Example 19, N-{5-Fluoro-3-[3-methyl-5-(2-morpholin-4-yl-ethyl)-4-oxo-4,5,6,7-tetrahydro-1H-pyrrolo[3,2-c]pyridine-2-ylmethylene]-2-oxo-2,3-dihydro-1H-indol-6-yl}-acetamide] | 2.56 |
| Cc1c(/C=C2\C(=O)Nc3cc(N)c(F)cc32)[nH]c2c1C(=O)N(CCN1CCOCC1)CC2 [Example 20, 2-(6-Amino-5-fluoro-2-oxo-1,2-dihydro-indol-3-ylidenemethyl)-3-methyl-5-(2-morpholin-4-yl-ethyl)-1,5,6,7-tetrahydro-pyrrolo[3,2-c]pyridin-4-one] | 15.3 |
| Cc1c(/C=C2\C(=O)Nc3c(N)cc(F)cc32)[nH]c2c1C(=O)N(CCN1CCOCC1)CC2 [Example 21, 2-(7-Amino-5-fluoro-2-oxo-1,2-dihydro-indol-3-ylidenemethyl)-3-methyl-5-(2-morpholin-4-yl-ethyl)-1,5,6,7-tetrahydro-pyrrolo[3,2-c]pyridin-4-one] | 2.1 |
| Cc1c(/C=C2\C(=O)Nc3cccc(-c4cccc(F)c4F)c32)[nH]c2c1C(=O)N(CCN1CCOCC1)CC2 [Example 44, 2-[4-(2,3-Difluoro-phenyl)-2-oxo-1,2-dihydro-indol-3-ylidenemethyl]-3-methyl-5-(2-morpholin-4-yl-ethyl)-1,5,6,7-tetrahydro-pyrrolo[3,2-c]pyridin-4-one] | 1.32 |
| COc1ccc2c(c1)/C(=C/c1[nH]c3c(c1C)C(=O)N(CCN1CCOCC1)CC3)C(=O)N2 [Example 45, 2-(5-Methoxy-2-oxo-1,2-dihydro-indol-3-ylidenemethyl)-3-methyl-5-(2-morpholin-4-yl-ethyl)-1,5,6,7-tetrahydro-pyrrolo[3,2-c]pyridin-4-one] | 1.15 |
| O=C1Nc2ccc(F)cc2/C1=C/c1[nH]c2c(c1-c1ccc(F)cc1)C(=O)NCC2 [Example 46, 2-(5-Fluoro-2-oxo-1,2-dihydro-indol-3-ylidenemethyl)-3-(4-fluoro-phenyl)-1,5,6,7-tetrahydro-pyrrolo[3,2-c]pyridin-4-one] | 10.5 |
| Cc1cccc2c1/C(=C/c1[nH]c3c(c1C)C(=O)N(CCN1CCOCC1)CC3)C(=O)N2 [Example 51, 3-Methyl-2-(4-methyl-2-oxo-1,2-dihydro-indol-3-ylidenemethyl)-5-(2-morpholin-4-yl-ethyl)-1,5,6,7-tetrahydro-pyrrolo[3,2-c]pyridin-4-one] | 0.78 |
| Cc1c(/C=C2\C(=O)Nc3ccc(NC=O)cc32)[nH]c2c1C(=O)N(CCN1CCOCC1)CC2 [Example 55, N-{3-[3-Methyl-5-(2-morpholin-4-yl-ethyl)-4-oxo-4,5,6,7-tetrahydro-1H-pyrrolo[3,2-c]pyridin-2-ylmethylene]-2-oxo-2,3-dihydro-1H-indol-5-yl}-formamide] | 3.72 |
| O=C1Nc2ccc(Cl)cc2/C1=C/c1[nH]c2c(c1-c1ccc(F)cc1)C(=O)NCC2 [Example 58, 2-(5-Chloro-2-oxo-1,2-dihydro-indol-3-ylidenemethyl)-3-(4-fluoro-phenyl)-1,5,6,7-tetrahydro-pyrrolo[3,2-c]pyridin-4-one] | 3.99 |
